Target: T1, TNFAIP3 Tumor necrosis factor alpha-induced protein 3 (Homo sapiens, UniProt P21580)
T1 construct: Cells were resuspended in cold PBS on ice and sonicated with a probe sonicator to achieve lysis; endogenous in cells
T1 sequence (P21580 1-790): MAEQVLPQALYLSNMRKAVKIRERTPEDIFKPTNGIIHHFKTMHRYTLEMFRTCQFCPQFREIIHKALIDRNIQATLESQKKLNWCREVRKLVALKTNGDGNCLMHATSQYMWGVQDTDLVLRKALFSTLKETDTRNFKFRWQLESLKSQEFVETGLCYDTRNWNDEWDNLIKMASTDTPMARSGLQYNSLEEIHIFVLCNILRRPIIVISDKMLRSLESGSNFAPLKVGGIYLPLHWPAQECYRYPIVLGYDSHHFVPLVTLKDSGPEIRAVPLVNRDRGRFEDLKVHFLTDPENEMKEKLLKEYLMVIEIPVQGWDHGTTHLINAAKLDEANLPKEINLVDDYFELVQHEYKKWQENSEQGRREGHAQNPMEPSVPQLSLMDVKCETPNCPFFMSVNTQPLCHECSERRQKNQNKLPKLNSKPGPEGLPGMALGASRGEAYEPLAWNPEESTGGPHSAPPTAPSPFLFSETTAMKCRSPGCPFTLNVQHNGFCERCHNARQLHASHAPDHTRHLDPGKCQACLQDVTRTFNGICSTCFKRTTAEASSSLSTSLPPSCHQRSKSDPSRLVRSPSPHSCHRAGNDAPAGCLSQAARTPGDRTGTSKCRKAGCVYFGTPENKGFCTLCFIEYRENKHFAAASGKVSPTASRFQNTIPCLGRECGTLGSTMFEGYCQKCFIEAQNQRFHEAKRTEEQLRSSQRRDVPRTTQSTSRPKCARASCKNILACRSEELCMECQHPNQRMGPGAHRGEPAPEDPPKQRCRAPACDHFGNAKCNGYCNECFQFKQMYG
Test: Cysteine liganding, probe competition
Format: binding
Outline: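 Steps: sonicate cells in cold PBS; treat 5 mg/ml lysate with compound (25° C, 1 hr); add desthiobiotin iodoacetamide probe from a 10 mM stock (25° C, 1 hr); precipitate, reduce, alkylate, digest with trypsin; capture labelled peptides on streptavidin for analysis.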

[1] = TNFAIP3 Res# 54, uniprot P21580

| Compound | Liganded [1] | Liganded (TNFAIP3 Res# 536, uniprot P21580) | Liganded (TNFAIP3 Res# 579, uniprot P21580) |
| --- | --- | --- | --- |
| COc1ccc2c(c1)CCCN2C(=O)CCl [KB02] | YES | YES | YES |
| O=C(CCl)Nc1cc(C(F)(F)F)cc(C(F)(F)F)c1 [KBO3] | YES |  |  |

Reference: patent US20200239530A1, “COMPOUNDS AND METHODS OF MODULATING PROTEIN DEGRADATION” (Vividion Therapeutics, Inc., priority 2017, published 2020)
